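96-well plates; 48 h exposure; 5 concentrations. Endpoints by linear interpolation between flanking doses. Not reached: highest tested concentration assigned. Abbreviation: GI50, concentration required for 50% inhibition of growth.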 The source made the active and inactive calls. Cut-off read from the data, not from the text of the source: active = GI50 up to about 1.1 µM and inactive = higher.
Columns and labels:
Assay in all cases: NCI-60 cell line screen, 48 h
MDA-MB-435 = system: MDA-MB-435
U-251 = system: U-251
OVCAR-3 = system: OVCAR-3
OVCAR-4 = system: OVCAR-4
RPMI-8226 = system: RPMI-8226
OVCAR-5 = system: OVCAR-5
CCRF-CEM = system: CCRF-CEM
TK-10 = system: TK-10
HOP-62 = system: HOP-62
SNB-75 = system: SNB-75
PC-3 = system: PC-3
NCI-H23 = system: NCI-H23
K562 = system: K562
HCT-116 = system: HCT-116
MDA-MB-231 = system: MDA-MB-231
SK-MEL-5 = system: SK-MEL-5
SF-268 = system: SF-268
KM12 = system: KM12
MOLT-4 = system: MOLT-4
HCC 2998 = system: HCC 2998

Compound	GI50 (MDA-MB-435)	GI50 (U-251)	GI50 (OVCAR-3)	GI50 (OVCAR-4)	GI50 (RPMI-8226)	GI50 (OVCAR-5)	GI50 (CCRF-CEM)	GI50 (TK-10)	GI50 (HOP-62)	GI50 (SNB-75)	GI50 (PC-3)	GI50 (NCI-H23)	GI50 (K562)	GI50 (HCT-116)	GI50 (MDA-MB-231)	GI50 (SK-MEL-5)	GI50 (SF-268)	GI50 (KM12)	GI50 (MOLT-4)	GI50 (HCC 2998)
N#Cc1c(N2CCN(c3ccc([N+](=O)[O-])cc3)CC2)[n+]([O-])c2ccc(-c3ccc([N+](=O)[O-])cc3)cc2[n+]1[O-]	39.6 µM (inactive)	1.25 µM (inactive)	> 19.8 µM (inactive)	> 31.2 µM (inactive)	5.02 µM (inactive)	30.7 µM (inactive)	1.28 µM (inactive)	> 56.8 µM (inactive)	1.82 µM (inactive)	> 26.9 µM (inactive)	2.55 µM (inactive)	> 31 µM (inactive)	5.26 µM (inactive)	4.56 µM (inactive)	22.5 µM (inactive)	4.18 µM (inactive)	> 100 µM (inactive)	> 83.6 µM (inactive)	–	–
C=CC1=C(C)c2cc3[nH]c(c4c5nc(cc6[nH]c(cc1n2)c(C=O)c6CC)C(C)=C5C(=O)[C@@H]4C(=O)OC)[C@@H](CCC(=O)O)[C@@H]3C	> 100 µM (inactive)	9.25 µM (inactive)	–	> 100 µM (inactive)	–	> 100 µM (inactive)	31.3 µM (inactive)	> 100 µM (inactive)	–	2.54 µM (inactive)	63.4 µM (inactive)	24.7 µM (inactive)	51.3 µM (inactive)	65.5 µM (inactive)	28 µM (inactive)	30.3 µM (inactive)	24.4 µM (inactive)	21.5 µM (inactive)	43.6 µM (inactive)	> 100 µM (inactive)
COc1ccc(/C=C/c2cnc3ccccc3n2)cc1OC	44.1 µM (inactive)	80.2 µM (inactive)	93.1 µM (inactive)	34.8 µM (inactive)	71.6 µM (inactive)	> 100 µM (inactive)	> 100 µM (inactive)	> 100 µM (inactive)	68.1 µM (inactive)	63.8 µM (inactive)	33.1 µM (inactive)	67.8 µM (inactive)	44.5 µM (inactive)	47.2 µM (inactive)	99.8 µM (inactive)	49.3 µM (inactive)	> 100 µM (inactive)	47.8 µM (inactive)	> 100 µM (inactive)	–
CC(=O)OCC1OC(n2c3c(c(-c4ccc(Cl)cc4)c(C#N)c2=S)CCCC3)C(OC(C)=O)C(OC(C)=O)C1OC(C)=O (configuration not stated)	67.3 µM (inactive)	88.9 µM (inactive)	21.7 µM (inactive)	25.5 µM (inactive)	–	> 100 µM (inactive)	40.7 µM (inactive)	44.9 µM (inactive)	97.3 µM (inactive)	15.3 µM (inactive)	25.5 µM (inactive)	46.5 µM (inactive)	44 µM (inactive)	33.3 µM (inactive)	> 100 µM (inactive)	16.7 µM (inactive)	96.6 µM (inactive)	71.4 µM (inactive)	25.1 µM (inactive)	> 100 µM (inactive)
CCOC(=O)CCC(NC(=O)Cc1ccc(Nc2nc3cc(F)c(F)cc3nc2C(=O)OCC)cc1)C(=O)OCC (configuration not stated)	> 100 µM (inactive)	> 100 µM (inactive)	> 100 µM (inactive)	> 100 µM (inactive)	–	> 100 µM (inactive)	20.8 µM (inactive)	> 100 µM (inactive)	> 100 µM (inactive)	35.2 µM (inactive)	> 100 µM (inactive)	> 100 µM (inactive)	37.2 µM (inactive)	83.9 µM (inactive)	41.8 µM (inactive)	> 100 µM (inactive)	31.3 µM (inactive)	> 100 µM (inactive)	44.6 µM (inactive)	> 100 µM (inactive)
O=P(O)(O)CC1OC(CO)C(O)C1O (configuration not stated)	> 100 µM (inactive)	> 100 µM (inactive)	> 100 µM (inactive)	> 100 µM (inactive)	–	> 100 µM (inactive)	> 100 µM (inactive)	> 100 µM (inactive)	–	> 100 µM (inactive)	> 100 µM (inactive)	> 100 µM (inactive)	> 100 µM (inactive)	> 100 µM (inactive)	> 100 µM (inactive)	> 100 µM (inactive)	> 100 µM (inactive)	> 100 µM (inactive)	> 100 µM (inactive)	> 100 µM (inactive)
O=C(O[C@@H](/C=C/c1ccccc1)P1(=O)N(Cc2ccccc2)[C@@H]2CCCC[C@H]2N1Cc1ccccc1)c1ccccc1	3.12 µM (inactive)	3.21 µM (inactive)	5.07 µM (inactive)	1.88 µM (inactive)	2 µM (inactive)	4.86 µM (inactive)	2.31 µM (inactive)	> 100 µM (inactive)	6.79 µM (inactive)	–	3.31 µM (inactive)	2.64 µM (inactive)	3.25 µM (inactive)	2.61 µM (inactive)	2.96 µM (inactive)	1.99 µM (inactive)	5.06 µM (inactive)	2.83 µM (inactive)	–	7.93 µM (inactive)
CCNC1CC(C(C)(C)NCC)CC=C1C (configuration not stated)	> 100 µM (inactive)	> 100 µM (inactive)	> 100 µM (inactive)	> 100 µM (inactive)	–	> 100 µM (inactive)	> 100 µM (inactive)	> 100 µM (inactive)	> 100 µM (inactive)	> 100 µM (inactive)	> 100 µM (inactive)	> 100 µM (inactive)	> 100 µM (inactive)	> 100 µM (inactive)	> 100 µM (inactive)	> 100 µM (inactive)	> 100 µM (inactive)	> 100 µM (inactive)	> 100 µM (inactive)	> 100 µM (inactive)
Cc1cc2nnn(C3CCCO3)c2cc1C (configuration not stated)	> 100 µM (inactive)	> 100 µM (inactive)	> 100 µM (inactive)	–	–	> 100 µM (inactive)	> 100 µM (inactive)	> 100 µM (inactive)	> 100 µM (inactive)	31.8 µM (inactive)	> 100 µM (inactive)	> 100 µM (inactive)	> 100 µM (inactive)	> 100 µM (inactive)	> 100 µM (inactive)	> 100 µM (inactive)	> 100 µM (inactive)	–	> 100 µM (inactive)	> 100 µM (inactive)
COc1cccc(CCCNC(=O)Cc2cc(OC)c(OC)cc2CO)c1	> 100 µM (inactive)	> 100 µM (inactive)	> 100 µM (inactive)	> 100 µM (inactive)	–	> 100 µM (inactive)	> 100 µM (inactive)	> 100 µM (inactive)	> 100 µM (inactive)	> 100 µM (inactive)	> 100 µM (inactive)	> 100 µM (inactive)	> 100 µM (inactive)	> 100 µM (inactive)	> 100 µM (inactive)	83.2 µM (inactive)	–	> 100 µM (inactive)	> 100 µM (inactive)	> 100 µM (inactive)
COc1cc2c(cc1OC)C(=O)N(NC1=NCCN1)C2=O	> 100 µM (inactive)	> 100 µM (inactive)	> 100 µM (inactive)	> 100 µM (inactive)	> 100 µM (inactive)	> 100 µM (inactive)	> 100 µM (inactive)	> 100 µM (inactive)	> 100 µM (inactive)	–	> 100 µM (inactive)	> 100 µM (inactive)	> 100 µM (inactive)	> 100 µM (inactive)	> 100 µM (inactive)	> 100 µM (inactive)	> 100 µM (inactive)	> 100 µM (inactive)	> 100 µM (inactive)	> 100 µM (inactive)
COc1ccc(/C=C2\Sc3nnc(-c4ccccc4)n3N=C2c2cc(F)c(Cl)cc2Cl)cc1OC	13.8 µM (inactive)	> 100 µM (inactive)	> 100 µM (inactive)	18.2 µM (inactive)	6.04 µM (inactive)	> 100 µM (inactive)	4.98 µM (inactive)	> 100 µM (inactive)	> 100 µM (inactive)	–	66.2 µM (inactive)	51.2 µM (inactive)	9.86 µM (inactive)	6.24 µM (inactive)	59.2 µM (inactive)	> 100 µM (inactive)	21 µM (inactive)	26.7 µM (inactive)	0.948 µM (active)	14.3 µM (inactive)
Cc1c[nH]c(C(=O)O)c1-c1cccn1-c1ccc(Cl)cc1[N+](=O)[O-]	> 100 µM (inactive)	> 100 µM (inactive)	11.8 µM (inactive)	> 100 µM (inactive)	–	> 100 µM (inactive)	> 100 µM (inactive)	> 100 µM (inactive)	63.2 µM (inactive)	> 100 µM (inactive)	49.9 µM (inactive)	> 100 µM (inactive)	73.8 µM (inactive)	> 100 µM (inactive)	> 100 µM (inactive)	> 100 µM (inactive)	> 100 µM (inactive)	76.6 µM (inactive)	63.1 µM (inactive)	> 100 µM (inactive)
OCCNCCN1CCN(CCCN2c3ccccc3Sc3ccc(C(F)(F)F)cc32)CC1	18.8 µM (inactive)	20.3 µM (inactive)	22.7 µM (inactive)	25.8 µM (inactive)	> 100 µM (inactive)	25.5 µM (inactive)	> 100 µM (inactive)	22.1 µM (inactive)	21.4 µM (inactive)	–	32 µM (inactive)	27.2 µM (inactive)	–	17.9 µM (inactive)	20.9 µM (inactive)	> 100 µM (inactive)	24.5 µM (inactive)	27.2 µM (inactive)	> 100 µM (inactive)	27.4 µM (inactive)
